For data set [1], the system named is HeLa-ACE2 cells. The data set is described as follows: Uninfected HeLa-ACE2 24 h live/dead cytotoxicity counter screen. Type of data set: cell-based, human. Conditions: for CC50: read-out: HeLa-ACE2 uninfected cytotoxicity CC50 GeoMean. (A counterscreen serves to expose hits that act by an unwanted route or on another target.)
Assay in data set [2]: as above
Type of data set: cell-based, human. The note with it: human, uninfected HeLa-ACE2 cells, geometric mean of replicates; read-out: HeLa-ACE2 uninfected cytotoxicity CC50 GeoMean.

For data set [3], the system named is HeLa-ACE2 cells. Put plainly: cells. Conditions: Homo sapiens, HeLa-ACE2, read-out: HeLa-ACE2 cell count EC50 GeoMean (µM), geometric mean of replicates.
Data set [4] concerns Calu-3 cells.
In data set [5] the test system is Calu-3 cells. Put plainly: cells. The note with it: Homo sapiens.
The subject of data set [6] is SARS-CoV-2. Put plainly: microbe, parasite or virus in culture. The note with it: for EC50: read-out: Calu-3 CoV-2 EC50 GeoMean. Type of data set: cell-based.
Data set [7] deals with SARS-CoV-2. Put plainly: microbe, parasite or virus in culture. Type of data set: cell-based. The note with it: for EC50: read-out: HeLa-ACE2 CoV-2 EC50 GeoMean.
A further data set is described as follows: in vitro. Conditions: human, Calu-3 uninfected cytotoxicity CC50 GeoMean (µM).
In data set [8] the test system is HeLa-ACE2 cells. Conditions: for EC50: read-out: HeLa-ACE2 cell count EC50 GeoMean.
Data set [9] concerns Calu-3 cells. Put plainly: Uninfected Calu-3 48 h Cell-Titer Glo cytotoxicity counter screen. The note with it: for CC50: read-out: Calu-3 uninfected cytotoxicity CC50 GeoMean.
Data set [10] concerns Calu-3 cells. Conditions: for Calu-3 cell count Sinf Average: curve-fit effect at infinite concentration; for EC50: read-out: Calu-3 cell count EC50 GeoMean.
For data set [11], the system named is SARS-CoV-2. It is filed as cell-based. The note with it: combination with remdesivir.
In data set [12] the test system is SARS-CoV-2. The data set is described as follows: microbe, parasite or virus in culture. It is filed as cell-based.
The subject of the next data set is HepG2. The data set is described as follows: HepG2 72 h CellTiter-Glo cytotoxicity. The note with it: 72 h. For orientation: ATP-based viability assays read luminescence as a measure of living cells.
The subject of data set [13] is HeLa-ACE2 cells. The data set is described as follows: cells. It is filed as cell-based, human. The note with it: read-out: HeLa-ACE2 TOA cell count EC50 GeoMean.
The test system of another data set is HEK293T. Put plainly: HEK293T 72 h CellTiter-Glo cytotoxicity. Conditions: 72 h.
Setting [14] is: curve-fit effect at infinite concentration, average.
Where [15] appears, read: curve plateau at infinite concentration.

Where two headings read alike, the source gives them in different places.

What is called CC50 is the concentration that lowers cell viability or growth by half. As a reminder, the EC50 is the concentration that produces a half-maximal response. As to `CN(C)C(C(=O)Nc1ccc2c(=O)[nH]ccc2c1)c1ccsc1` (stereo not drawn) [Verosudil], the “HeLa-ACE2 uninfected cytotoxicity Sinf Average (%)” value in the data set on HeLa-ACE2 cells [1] (Sinf average of the curves) is -100%. Moreover, the CC50 at 24 h in data set [2] is over 39.8 µM. The EC50 with HeLa-ACE2 cells [3] is over 9.59 µM; in the data set with Calu-3 cells [5] (Calu-3, read-out: Calu-3 cell count EC50 GeoMean (µM), geometric mean of replicates), 0.561 µM; in the data set on SARS-CoV-2 [6] (Severe acute respiratory syndrome coronavirus 2, Calu-3, geometric mean of replicates), over 3.51 µM; in the data set with SARS-CoV-2 [7] (Severe acute respiratory syndrome coronavirus 2, HeLa-ACE2, geometric mean of replicates), over 9.59 µM. Besides, in the data set with Calu-3 cells [4], the “uninfected Calu-3 CC50 [μM]” value is recorded as > 18.887 ×÷ 2.21 (n=3) μM. The “Calu-3 uninfected cytotoxicity Sinf Average (%)” value in the data set with Calu-3 cells [4] (human, 48 h) amounted to 80%. The Emax in the data set with Calu-3 cells [5] (Calu-3, 48 h, read-out: Calu-3 cell count Sinf Average (%)) was 79%; with SARS-CoV-2 [6] (Severe acute respiratory syndrome coronavirus 2, Calu-3, 48 h, Sinf average of the curves, read-out: Calu-3 CoV-2 Sinf Average (%)), 93%. Moreover, the CC50 at 48 h in “in vitro” is over 18.9 µM. Moreover, in the data set with HeLa-ACE2 cells [8] (Sinf average of the curves), the “HeLa-ACE2 cell count Sinf Average (%)” value is reported as -100%.
Consider `COc1ccc(C[C@H]2NC[C@H](O)[C@H]2OC(C)=O)cc1` [Anisomycin], for which the “HeLa-ACE2 uninfected cytotoxicity Sinf Average” value in the data set with HeLa-ACE2 cells [1] (setting [14]) is -98%. Further, the “Calu-3 uninfected cytotoxicity Sinf Average” value in the data set on Calu-3 cells [9] (setting [14]) is listed as -66%. Moreover, the “Calu-3 CoV-2 Sinf Average” value in the data set on SARS-CoV-2 [6] (setting [14]) is on record as -98%. Also, the EC50 was 0.127 µM in the data set with SARS-CoV-2 [6] (unrounded geometric mean), over 2.46 µM in the data set with Calu-3 cells [10] (unrounded geometric mean), 0.0664 µM in the data set with SARS-CoV-2 [7] (unrounded geometric mean) and 0.636 µM in the data set on HeLa-ACE2 cells [8] (unrounded geometric mean). Besides, the “Calu-3 cell count Sinf Average” value in the data set on Calu-3 cells [10] turned out to be 37%. In the data set with SARS-CoV-2 [7] (setting [14]), the “HeLa-ACE2 CoV-2 Sinf Average” value was -102%. In the data set on HeLa-ACE2 cells [8] (setting [14]), the “HeLa-ACE2 cell count Sinf Average” value is recorded as -103%.
As to Antimycin A3, in the data set on HeLa-ACE2 cells [1] (setting [14]), the “HeLa-ACE2 uninfected cytotoxicity Sinf Average” value was -100%. Moreover, the CC50 is over 39.8 µM with HeLa-ACE2 cells [1] (unrounded geometric mean) and over 3.9 µM with Calu-3 cells [9] (unrounded geometric mean). In the data set with Calu-3 cells [9] (setting [14]), the “Calu-3 uninfected cytotoxicity Sinf Average” value is -79%. Moreover, the “Calu-3 CoV-2 Sinf Average” value in the data set with SARS-CoV-2 [6] (setting [14]) is listed as -92%. Further, the EC50 in the data set on SARS-CoV-2 [6] (unrounded geometric mean) is 0.0355 µM; in the data set with Calu-3 cells [10] (unrounded geometric mean) it was 0.0626 µM; in the data set on SARS-CoV-2 [7] (unrounded geometric mean), over 9.59 µM; in the data set on HeLa-ACE2 cells [8] (unrounded geometric mean), over 9.59 µM. In the data set on Calu-3 cells [10], the “Calu-3 cell count Sinf Average” value was 47%.
Deazaneplanocin A: in the data set with HeLa-ACE2 cells [1] (setting [14]), the “HeLa-ACE2 uninfected cytotoxicity Sinf Average” value is reported as -79%. Moreover, the CC50 is over 7.95 µM in the data set with HeLa-ACE2 cells [1] (unrounded geometric mean) and over 10.3 µM with Calu-3 cells [9] (unrounded geometric mean). Further, in the data set on Calu-3 cells [9] (setting [14]), the “Calu-3 uninfected cytotoxicity Sinf Average” value is given as -70%. In addition, the “Calu-3 CoV-2 Sinf Average” value in the data set on SARS-CoV-2 [6] (setting [14]) is on record as -85%. The EC50 in the data set on SARS-CoV-2 [6] (unrounded geometric mean) is 0.0568 µM; with Calu-3 cells [10] (unrounded geometric mean), 0.108 µM; in the data set with SARS-CoV-2 [7] (unrounded geometric mean), over 9.59 µM. In addition, the “Calu-3 cell count Sinf Average” value in the data set on Calu-3 cells [10] is recorded as 62%. In addition, the “HeLa-ACE2 CoV-2 Sinf Average” value in the data set on SARS-CoV-2 [7] (setting [14]) was -100%.
Take `CN(C)CC1=C[CH]([Fe][CH]2C=CC=C2)C=C1CNc1ccnc2cc(Cl)ccc12` (stereo not drawn) [Ferroquine]: in the data set with HeLa-ACE2 cells [1] (setting [15]), the “HeLa-ACE2 uninfected cytotoxicity Sinf Average” value is -100%. Besides, the CC50 with HeLa-ACE2 cells [1] (detail block) came out at 13.4 µM; with HepG2 (read-out: HepG2 72-hour cytotoxicity CC50 GeoMean) it was 4.72 µM; in the data set on Calu-3 cells [9] (detail block), 17.5 µM; in the data set with HEK293T (read-out: HEK293T 72-hour cytotoxicty CC50 GeoMean), 7.24 µM. Further, the “HeLa-ACE2 synergy score with remdesivi” value in the data set on SARS-CoV-2 [11] is listed as -2.076 δ. Also, in the data set with SARS-CoV-2 [12], the “TOA:HeLa-ACE2 EC50 Ratio” value is 7.345. The “HeLa-ACE2 TOA CoV-2 Sinf Average” value in the data set on SARS-CoV-2 [12] (setting [15]) is recorded as -100%. For the same compound, the EC50 was over 9.59 µM in the data set with SARS-CoV-2 [12] (read-out: HeLa-ACE2 TOA CoV-2 EC50 GeoMean); over 9.59 µM in the data set on HeLa-ACE2 cells [13]; over 9.98 µM in the data set with SARS-CoV-2 [6]; over 9.98 µM in the data set on Calu-3 cells [10] (detail block); 1.31 µM in the data set on SARS-CoV-2 [7] (detail block); over 6.8 µM with HeLa-ACE2 cells [8] (detail block). Also, the “HepG2 72-hour cytotoxicity Sinf Average” value in the data set on HepG2 is -100%. In the data set on Calu-3 cells [9] (setting [15]), the “Calu-3 uninfected cytotoxicity Sinf Average” value is recorded as -100%. For the same compound, the “Calu-3 CoV-2 Sinf Average” value in the data set on SARS-CoV-2 [6] (setting [15]) was -100%. Moreover, the “HeLa-ACE2 CoV-2 Sinf Average” value in the data set on SARS-CoV-2 [7] (setting [15]) is reported as -97%. The “HeLa-ACE2 SI” value with SARS-CoV-2 [7] (selectivity index, uninfected HeLa-ACE2 CC50 / SARS-CoV-2 EC50) is 10.29. In the data set on HEK293T, the “HEK293T 72-hour cytotoxicty Sinf Average” value is given as -100%. Besides, the “HeLa-ACE2 cell count Sinf Average” value in the data set on HeLa-ACE2 cells [8] (setting [15]) was -53%.

Source of the values: PMC8175350, “Drug repurposing screens identify chemical entities for the development of COVID-19 interventions” (Nature Communications, 2021).
